Measured values taken from publication PMC7343282, “Tissue Distribution of Several Series of Cationic Surfactants in Rainbow Trout (Oncorhynchus mykiss) Following Exposure via Water” (Environmental Science & Technology, 2020).

Tested on: rainbow trout (Oncorhynchus mykiss)
Assay: Contribution of tissues to fish body burden
Type: in vivo
Conditions: for Contribution of Blood to the fish's body burden / Contribution of Gills to the fish's body burden / Contribution of Liver to the fish's body burden / Contribution of Mucus to the fish's body burden / Contribution of Other tissue (all apart from blood, liver, gills and skin; muscle concentration assumed) to body burden / Contribution of Skin to the fish's body burden: fraction; for % contribution to body burden, Gills / % contribution to body burden, Mucus / % contribution to body burden, Liver / % contribution to body burden, Skin / % contribution to body burden, Muscle: mean across fish, Figure 1; for % contribution to body burden, Liver / % contribution to body burden, Skin / % contribution to body burden, Muscle: Q10, Q14 maximum estimates; for % contribution to body burden, Muscle: includes all tissues not specifically analyzed
Excerpt: To calculate the quantity of the test chemical in the different tissues, the amount of each tissue in the fish was estimated and multiplied by the concentration in that tissue. The test chemical quantities in the different tissues were then summed to give the body burden in each fish. The total weight of the fish and the weight of the liver and gills were available from the dissection (Table S16). For skin and mucus, the estimated outer surface area of the fish was used. We note that the distinction between mucus and skin is an operational one determined by the extraction method; mucus can be viewed as a more readily extracted fraction of the test chemical residues at the fish surface. The volume of blood was taken as 0.0495 mL g^–1 fish.[30] The remaining tissue (difference between the weight of the whole fish and the weight of liver, gills, skin, and blood) was assumed to have the concentration measured in the muscle. The contribution of the different tissues to the body burden is given for each fish in Table S17, and the average contribution across all fish is plotted in Figure 1. All of the tissues, with the exception of blood, contribute at least 10% of the body burden for at least half of the test chemicals. There is no consistent negative correlation between the fraction of chemical associated with blood, muscle, and liver (tissues where the residue originates entirely from systemic uptake) and alkyl chain length (a measure of hydrophobicity). Thus, although adsorption to fish surfaces appears to play a significant role, its contribution to body burden cannot be simply predicted from surfactant hydrophobicity. In the following, we examine uptake in individual tissues.

Q: Which “Contribution of Blood to the fish's body burden” value (from here on “Contribution of Blood”) (Fish #1) does the source give for CCCCCCCCCCCCN [P12, Dodecylamine] here?
A: 0.014

Q: And the “Contribution of Gills to the fish's body burden” value (“Contribution of Gills” below) (Fish #1)?
A: 0.34

Q: And the “Contribution of Liver to the fish's body burden” value (“Contribution of Liver” below) (Fish #1)?
A: 0.16

Q: What about the “Contribution of Mucus to the fish's body burden” value (shortened to “Contribution of Mucus”) (Fish #1) of the same compound?
A: 0.19

Q: What about the “Contribution of Other tissue (all apart from blood, liver, gills and skin; muscle concentration assumed) to body burden” value (“Contribution of Other tissue” for short) (Fish #1) of the same compound?
A: 0.15

Q: What about the “Contribution of Skin to the fish's body burden” value (shortened to “Contribution of Skin”) (Fish #1) of the same compound?
A: 0.14

Q: What about the “Contribution of Blood” value (Fish #2) of the same compound?
A: 0.015

Q: What about the “Contribution of Gills” value (Fish #2) of the same compound?
A: 0.24

Q: And the “Contribution of Liver” value (Fish #2)?
A: 0.22

Q: What about the “Contribution of Mucus” value (Fish #2) of the same compound?
A: 0.12

Q: And the “Contribution of Other tissue” value (Fish #2)?
A: 0.16

Q: What about the “Contribution of Skin” value (Fish #2) of the same compound?
A: 0.25

Q: And the “Contribution of Blood” value (Fish #3)?
A: 0.017

Q: And the “Contribution of Liver” value (Fish #3)?
A: 0.20

Q: What about the “Contribution of Mucus” value (Fish #3) of the same compound?
A: 0.11

Q: And the “Contribution of Other tissue” value (Fish #3)?
A: 0.16

Q: And the “Contribution of Skin” value (Fish #3)?
A: 0.23

Q: And the “Contribution of Blood” value (Fish #4)?
A: 0.011

Q: What about the “Contribution of Gills” value (Fish #4) of the same compound?
A: 0.26

Q: What about the “Contribution of Liver” value (Fish #4) of the same compound?
A: 0.24

Q: And the “Contribution of Mucus” value (Fish #4)?
A: 0.14

Q: What about the “Contribution of Other tissue” value (Fish #4) of the same compound?
A: 0.16

Q: What about the “Contribution of Skin” value (Fish #4) of the same compound?
A: 0.19

Q: What about the “Contribution of Blood” value (Fish #5) of the same compound?
A: 0.010

Q: And the “Contribution of Gills” value (Fish #5)?
A: 0.32

Q: What about the “Contribution of Liver” value (Fish #5) of the same compound?
A: 0.12

Q: What about the “Contribution of Mucus” value (Fish #5) of the same compound?
A: 0.17

Q: What about the “Contribution of Other tissue” value (Fish #5) of the same compound?
A: 0.20

Q: And the “Contribution of Skin” value (Fish #5)?
A: 0.18

Q: And the “Contribution of Blood” value (Fish #6)?
A: 0.018

Q: What about the “Contribution of Gills” value (Fish #6) of the same compound?
A: 0.26

Q: What about the “Contribution of Liver” value (Fish #6) of the same compound?
A: 0.16

Q: And the “Contribution of Mucus” value (Fish #6)?
A: 0.18

Q: What about the “Contribution of Other tissue” value (Fish #6) of the same compound?
A: 0.12

Q: What about the “Contribution of Skin” value (Fish #6) of the same compound?
A: 0.26

Q: And the “Contribution of Blood” value (Mean)?
A: 0.014

Q: And the “Contribution of Gills” value (Mean)?
A: 0.28

Q: And the “Contribution of Liver” value (Mean)?
A: 0.19

Q: And the “Contribution of Mucus” value (Mean)?
A: 0.15

Q: What about the “Contribution of Other tissue” value (Mean) of the same compound?
A: 0.16

Q: And the “Contribution of Skin” value (Mean)?
A: 0.21

Q: And the “% contribution to body burden, Gills” value?
A: 28%

Q: What about the “% contribution to body burden, Mucus” value of the same compound?
A: 15%

Q: And the “% contribution to body burden, Liver” value?
A: 19%

Q: What about the “% contribution to body burden, Skin” value of the same compound?
A: 21%

Q: And the “% contribution to body burden, Muscle” value?
A: 16%

Q: How did the “Contribution of Blood” value (Fish #1) turn out when CCCCCCCCCN(C)C [T9, N,N-dimethylnonylamine] was run?
A: 0.045

Q: And the “Contribution of Gills” value (Fish #1)?
A: 0.11

Q: What about the “Contribution of Liver” value (Fish #1) of the same compound?
A: 0.08

Q: And the “Contribution of Mucus” value (Fish #1)?
A: 0.12

Q: What about the “Contribution of Other tissue” value (Fish #1) of the same compound?
A: 0.35

Q: What about the “Contribution of Skin” value (Fish #1) of the same compound?
A: 0.30

Q: And the “Contribution of Blood” value (Fish #2)?
A: 0.059

Q: And the “Contribution of Gills” value (Fish #2)?
A: 0.14

Q: What about the “Contribution of Liver” value (Fish #2) of the same compound?
A: 0.08

Q: And the “Contribution of Mucus” value (Fish #2)?
A: 0.12

Q: And the “Contribution of Other tissue” value (Fish #2)?
A: 0.39

Q: And the “Contribution of Skin” value (Fish #2)?
A: 0.22

Q: What about the “Contribution of Blood” value (Fish #3) of the same compound?
A: 0.075

Q: What about the “Contribution of Liver” value (Fish #3) of the same compound?
A: 0.11

Q: And the “Contribution of Mucus” value (Fish #3)?
A: 0.09

Q: And the “Contribution of Other tissue” value (Fish #3)?
A: 0.43

Q: What about the “Contribution of Skin” value (Fish #3) of the same compound?
A: 0.17

Q: What about the “Contribution of Blood” value (Fish #4) of the same compound?
A: 0.046

Q: And the “Contribution of Gills” value (Fish #4)?
A: 0.15

Q: And the “Contribution of Liver” value (Fish #4)?
A: 0.04

Q: What about the “Contribution of Mucus” value (Fish #4) of the same compound?
A: 0.14

Q: And the “Contribution of Other tissue” value (Fish #4)?
A: 0.38

Q: What about the “Contribution of Skin” value (Fish #4) of the same compound?
A: 0.24

Q: And the “Contribution of Blood” value (Fish #5)?
A: 0.056

Q: What about the “Contribution of Gills” value (Fish #5) of the same compound?
A: 0.14

Q: What about the “Contribution of Liver” value (Fish #5) of the same compound?
A: 0.18

Q: And the “Contribution of Mucus” value (Fish #5)?
A: 0.08

Q: What about the “Contribution of Other tissue” value (Fish #5) of the same compound?
A: 0.35

Q: And the “Contribution of Skin” value (Fish #5)?
A: 0.19

Q: And the “Contribution of Blood” value (Fish #6)?
A: 0.062

Q: And the “Contribution of Gills” value (Fish #6)?
A: 0.11

Q: And the “Contribution of Liver” value (Fish #6)?
A: 0.26

Q: What about the “Contribution of Mucus” value (Fish #6) of the same compound?
A: 0.08

Q: And the “Contribution of Other tissue” value (Fish #6)?
A: 0.33

Q: And the “Contribution of Skin” value (Fish #6)?
A: 0.17

Q: What about the “Contribution of Blood” value (Mean) of the same compound?
A: 0.057

Q: And the “Contribution of Gills” value (Mean)?
A: 0.13

Q: And the “Contribution of Liver” value (Mean)?
A: 0.13

Q: And the “Contribution of Mucus” value (Mean)?
A: 0.10

Q: What about the “Contribution of Other tissue” value (Mean) of the same compound?
A: 0.37

Q: And the “Contribution of Skin” value (Mean)?
A: 0.21

Q: What about the “Share of body burden in interior tissues (blood, liver, and muscle)” value (in vivo) of the same compound?
A: more than half

Q: And the “% contribution to body burden, Gills” value?
A: 13%

Q: And the “% contribution to body burden, Mucus” value?
A: 10%

Q: And the “% contribution to body burden, Liver” value?
A: 13%

Q: What about the “% contribution to body burden, Skin” value of the same compound?
A: 21%

Q: And the “% contribution to body burden, Muscle” value?
A: 37%

Q: Which “Contribution of Blood” value (Fish #1) does the source give for CCCCCCCCCCCCCN(C)C [T13, N,N-dimethyltridecylamine] here?
A: 0.038

Q: What about the “Contribution of Gills” value (Fish #1) of the same compound?
A: 0.28

Q: And the “Contribution of Liver” value (Fish #1)?
A: 0.05

Q: And the “Contribution of Mucus” value (Fish #1)?
A: 0.11

Q: What about the “Contribution of Other tissue” value (Fish #1) of the same compound?
A: 0.36

Q: What about the “Contribution of Skin” value (Fish #1) of the same compound?
A: 0.17

Q: And the “Contribution of Blood” value (Fish #2)?
A: 0.031

Q: What about the “Contribution of Gills” value (Fish #2) of the same compound?
A: 0.26

Q: And the “Contribution of Liver” value (Fish #2)?
A: 0.09

Q: And the “Contribution of Mucus” value (Fish #2)?
A: 0.09

Q: What about the “Contribution of Other tissue” value (Fish #2) of the same compound?
A: 0.29

Q: And the “Contribution of Skin” value (Fish #2)?
A: 0.24

Q: What about the “Contribution of Blood” value (Fish #3) of the same compound?
A: 0.038

Q: And the “Contribution of Liver” value (Fish #3)?
A: 0.11

Q: What about the “Contribution of Mucus” value (Fish #3) of the same compound?
A: 0.07

Q: What about the “Contribution of Other tissue” value (Fish #3) of the same compound?
A: 0.31

Q: What about the “Contribution of Skin” value (Fish #3) of the same compound?
A: 0.22

Q: And the “Contribution of Blood” value (Fish #4)?
A: 0.023

Q: And the “Contribution of Gills” value (Fish #4)?
A: 0.22

Q: And the “Contribution of Liver” value (Fish #4)?
A: 0.21

Q: What about the “Contribution of Mucus” value (Fish #4) of the same compound?
A: 0.07

Q: What about the “Contribution of Other tissue” value (Fish #4) of the same compound?
A: 0.32

Q: What about the “Contribution of Skin” value (Fish #4) of the same compound?
A: 0.17

Q: What about the “Contribution of Blood” value (Fish #5) of the same compound?
A: 0.025

Q: What about the “Contribution of Gills” value (Fish #5) of the same compound?
A: 0.30

Q: What about the “Contribution of Liver” value (Fish #5) of the same compound?
A: 0.07

Q: And the “Contribution of Mucus” value (Fish #5)?
A: 0.09

Q: What about the “Contribution of Other tissue” value (Fish #5) of the same compound?
A: 0.31

Q: What about the “Contribution of Skin” value (Fish #5) of the same compound?
A: 0.21

Q: What about the “Contribution of Blood” value (Fish #6) of the same compound?
A: 0.042

Q: What about the “Contribution of Gills” value (Fish #6) of the same compound?
A: 0.24

Q: And the “Contribution of Liver” value (Fish #6)?
A: 0.06

Q: And the “Contribution of Mucus” value (Fish #6)?
A: 0.11

Q: And the “Contribution of Other tissue” value (Fish #6)?
A: 0.29

Q: What about the “Contribution of Skin” value (Fish #6) of the same compound?
A: 0.25

Q: What about the “Contribution of Blood” value (Mean) of the same compound?
A: 0.033

Q: What about the “Contribution of Gills” value (Mean) of the same compound?
A: 0.26

Q: And the “Contribution of Liver” value (Mean)?
A: 0.10

Q: What about the “Contribution of Mucus” value (Mean) of the same compound?
A: 0.09

Q: And the “Contribution of Other tissue” value (Mean)?
A: 0.31

Q: And the “Contribution of Skin” value (Mean)?
A: 0.21

Q: What about the “% contribution to body burden, Gills” value of the same compound?
A: 26%

Q: What about the “% contribution to body burden, Mucus” value of the same compound?
A: 9%

Q: What about the “% contribution to body burden, Liver” value of the same compound?
A: 10%

Q: And the “% contribution to body burden, Skin” value?
A: 21%

Q: What about the “% contribution to body burden, Muscle” value of the same compound?
A: 31%
